In ChEMBL document CHEMBL1141270, “Withanolides from Jaborosa kurtzii” (2007):

Columns and labels:
Lactuca sativa = test: Phytotoxicity against Lactuca sativa assessed as inhibition in radicle length at 400 ppm; assay type: functional
Avena sativa = test: Phytotoxicity against Avena sativa assessed as inhibition of radicle length at 400 ppm; assay type: functional

`CC1=C(C)C(=O)O[C@]2(C1)O[C@@]1(O)CC3C(CC=C4CC=CC(=O)[C@@]43C)C3CC[C@@](O)([C@@H]2C)[C@]31C` (some centres not stated) [JABOROSALACTONE 43] was tested, and the inhibition at 400 ppm (Lactuca sativa) was 32% and the inhibition at 400 ppm (Avena sativa) was 4%.
